Experimental data from patent publication US20130274127A1, “GENE EXPRESSION MARKERS FOR PREDICTION OF RESPONSE TO PHOSPHOINOSITIDE 3-KINASE INHIBITORS” (GENOMIC HEALTH, INC., priority 2012, published 2013).

Key:
Experiment in all cases: NCI-60 in vitro drug sensitivity testing (SRB)
Assay type in all cases: cell-based
KM12 = settings: Homo sapiens, KM12, read-out: GDC-0941 GI50
Excerpt: (§1) Cell lines used in this study were obtained from the National Cancer Institute Developmental Therapeutics program (NCI DTP) and were maintained in RPMI 1640 media (Invitrogen, Grand Island, N.Y.) containing 10% Fetal Bovine Serum (ATCC, Manassas, Va.). Cell lines were used within six months of receipt from the NCI DTP, abrogating the need for reauthentication.
(§2) 14, 2010 and Aug. 9, 2010.

RXF 393 = settings: Homo sapiens, RXF 393, read-out: GDC-0941 GI50
Excerpt: as §1, §2

MDA-MB-468 = settings: Homo sapiens, MDA-MB-468, read-out: GDC-0941 GI50
Excerpt: as §1, §2

HOP-62 = settings: Homo sapiens, HOP-62, read-out: GDC-0941 GI50
Excerpt: as §1, §2

COLO 205 = settings: Homo sapiens, COLO 205, read-out: GDC-0941 GI50
Excerpt: as §1, §2

SR = settings: Homo sapiens, read-out: GDC-0941 GI50
Excerpt: as §1, §2

UACC-257 = settings: Homo sapiens, UACC-257, read-out: GDC-0941 GI50
Excerpt: as §1, §2

EKVX = settings: Homo sapiens, read-out: GDC-0941 GI50
Excerpt: as §1, §2

UACC-62 = settings: Homo sapiens, UACC-62, read-out: GDC-0941 GI50
Excerpt: as §1, §2

NCI-H23 = settings: Homo sapiens, NCI-H23, read-out: GDC-0941 GI50
Excerpt: as §1, §2

NCI/ADR-RES = settings: Homo sapiens, read-out: GDC-0941 GI50
Excerpt: as §1, §2

SF-539 = settings: Homo sapiens, SF-539, read-out: GDC-0941 GI50
Excerpt: as §1, §2

U251 = settings: Homo sapiens, U-251, read-out: GDC-0941 GI50
Excerpt: as §1, §2

K-562 = settings: Homo sapiens, K562, read-out: GDC-0941 GI50
Excerpt: as §1, §2

HT29 = settings: Homo sapiens, HT-29, read-out: GDC-0941 GI50
Excerpt: as §1, §2

SK-MEL-2 = settings: Homo sapiens, SK-MEL-2, read-out: GDC-0941 GI50
Excerpt: as §1, §2

SNB-19 = settings: Homo sapiens, SNB-19, read-out: GDC-0941 GI50
Excerpt: as §1, §2

OVCAR-3 = settings: Homo sapiens, OVCAR-3, read-out: GDC-0941 GI50
Excerpt: as §1, §2

HCT-116 = settings: Homo sapiens, HCT-116, read-out: GDC-0941 GI50
Excerpt: as §1, §2

SW-620 = settings: Homo sapiens, SW-620, read-out: GDC-0941 GI50
Excerpt: as §1, §2

HCC-2998 = settings: Homo sapiens, read-out: GDC-0941 GI50
Excerpt: as §1, §2

HS 578T = settings: Homo sapiens, read-out: GDC-0941 GI50
Excerpt: as §1, §2

SF-295 = settings: Homo sapiens, SF-295, read-out: GDC-0941 GI50
Excerpt: as §1, §2

T-47D = settings: Homo sapiens, T47D, read-out: GDC-0941 GI50
Excerpt: as §1, §2

CAKI-1 = settings: Homo sapiens, CAKI-1, read-out: GDC-0941 GI50
Excerpt: as §1, §2

NCI-H322M = settings: Homo sapiens, read-out: GDC-0941 GI50
Excerpt: as §1, §2

BT-549 = settings: Homo sapiens, BT-549, read-out: GDC-0941 GI50
Excerpt: as §1, §2

UO-31 = settings: Homo sapiens, UO-31, read-out: GDC-0941 GI50
Excerpt: as §1, §2

MALME-3M = settings: Homo sapiens, read-out: GDC-0941 GI50
Excerpt: as §1, §2

RPMI-8226 = settings: Homo sapiens, RPMI-8226, read-out: GDC-0941 GI50
Excerpt: as §1, §2

A498 = settings: Homo sapiens, A498, read-out: GDC-0941 GI50
Excerpt: as §1, §2

For CS(=O)(=O)N1CCN(Cc2cc3nc(-c4cccc5[nH]ncc45)nc(N4CCOCC4)c3s2)CC1 [GDC-0941], the GI50 (KM12) was 708 nM, the GI50 (RXF 393) was 251 nM and the GI50 (MDA-MB-468) was 110 nM. The GI50 (HOP-62) was 363 nM, the GI50 (COLO 205) was 269 nM and the GI50 (SR) was 1290 nM. It also gave a GI50 (UACC-257) of 78 nM, a GI50 (EKVX) of 195 nM and a GI50 (UACC-62) of 112 nM. For the same molecule, the GI50 (NCI-H23) was 2290 nM, the GI50 (NCI/ADR-RES) was 2040 nM and the GI50 (SF-539) was 251 nM. For the same molecule, the GI50 (U251) was 1050 nM, the GI50 (K-562) was 3.47 µM and the GI50 (HT29) was 120 nM. The GI50 (SK-MEL-2) was 759 nM, the GI50 (SNB-19) was 1150 nM and the GI50 (OVCAR-3) was 126 nM. For the same molecule, the GI50 (HCT-116) was 692 nM, the GI50 (SW-620) was 832 nM and the GI50 (HCC-2998) was 1320 nM. It also gave a GI50 (HS 578T) of 71 nM, a GI50 (SF-295) of 110 nM and a GI50 (T-47D) of 11 nM. For the same molecule, the GI50 (CAKI-1) was 178 nM, the GI50 (NCI-H322M) was 209 nM and the GI50 (BT-549) was 32 nM. It also gave a GI50 (UO-31) of 78 nM, a GI50 (MALME-3M) of 138 nM and a GI50 (RPMI-8226) of 3.47 µM. For the same molecule, the GI50 (A498) was 123 nM.
